Results taken from patent publication US20020028938A1, “Prostaglandin endoperoxide H synthase biosynthesis inhibitors” (priority 1997, published 2002).

Legend:
[1] = target: T1, human amnionic whole cell cyclooxygenase-2 (WISH cells) (Homo sapiens, UniProt P35354); test: IL-1β induced PGE2 production in WISH cells; assay type: cell-based; settings: for IC50: read-out: Wish IC50 (parenthetical value)
T1 construct: endogenous in cells; host or cells: human amnionic WISH cells, induced with IL-1beta
T1 sequence (P35354 18-604): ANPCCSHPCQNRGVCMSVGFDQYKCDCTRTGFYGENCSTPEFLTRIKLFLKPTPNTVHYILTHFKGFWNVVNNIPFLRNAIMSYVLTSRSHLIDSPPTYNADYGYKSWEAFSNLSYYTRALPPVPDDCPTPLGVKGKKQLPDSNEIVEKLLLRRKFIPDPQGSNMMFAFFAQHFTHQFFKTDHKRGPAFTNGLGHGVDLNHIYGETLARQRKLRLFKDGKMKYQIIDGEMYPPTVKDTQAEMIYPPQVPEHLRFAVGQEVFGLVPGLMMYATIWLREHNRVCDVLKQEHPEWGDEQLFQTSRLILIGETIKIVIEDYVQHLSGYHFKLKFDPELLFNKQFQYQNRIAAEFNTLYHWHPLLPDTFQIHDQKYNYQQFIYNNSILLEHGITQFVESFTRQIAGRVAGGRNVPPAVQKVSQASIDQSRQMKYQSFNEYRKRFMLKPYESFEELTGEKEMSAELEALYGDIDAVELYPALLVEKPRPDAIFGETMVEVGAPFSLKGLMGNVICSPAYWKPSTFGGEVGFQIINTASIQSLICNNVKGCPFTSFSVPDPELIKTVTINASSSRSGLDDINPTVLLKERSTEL
How it was run: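 Confluent (80%) WISH cells were stimulated with 5 ng/ml IL-1β in serum-free Neuman-Tytell medium, with or without test compound in DMSO (0.01% v/v). PGE2 in the culture medium was measured by EIA against standards prepared in the same medium, read by optical density.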

[2] = target: T2, Human Whole Platelet Cyclooxygenase-1 (Homo sapiens, UniProt P23219); test: Human Whole Platelet Cyclooxygenase-1 assay (HWPX); assay type: cell-based; settings: for IC50: read-out: HWPX IC50 (parenthetical value)
T2 construct: from tissue; host or cells: human blood: isolated platelets (A4) or heparinised whole blood (A9)
Experimental: Blood from normal healthy volunteers is collected into tubes containing ACD (acid citrate dextrose) as the anticoagulant. This blood is centrifuged at 175×g to prepare platelet rich plasma. The platelet rich plasma is then centrifuged at 100×g to pellet the white blood cells, leaving the platelets in the supernatant. The supernatant is layered on a cushion of 0.7 mL of 10% bovine serum albumin in Tyrodes solution (Gibco; Grand Island, N.Y.) and then centrifuged at 1000×g. The resulting supernatant from this centrifuigation is then removed and 11 mL of Tyrodes solution is added to the remaining pellet of platelets. The platelets are then aliquoted at 120 μl into a 96 well plate. Experimental compounds are added and allowed to pre-incubate for 10 minutes. At the end of this pre-incubation period, the calcium ionophore A23187 is added to a final concentration of 8.8 μM and the incubation is continued for ten minutes. The reaction is stopped by adding cold 6 mM EDTA, the incubation mixture is centrifuged at 220×g, and the supernatants are then analyzed for thromboxane using a commercial kit from Cayman Chemical (Ann Arbor, Mich.

[3] = target: T3, recombinant human Cox-1 (r-hu Cox1) (Homo sapiens, UniProt P23219); test: Recombinant human PGHS-1 enzyme assay (RHUCX1); assay type: biochemical; settings: for IC50: read-out: RHUCX1 IC50 (parenthetical value)
T3 construct: made in house; host or cells: baculovirus/Sf9 insect cells (microsomes)
How it was run: (§1)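 PGE2 formed with and without drug quantified by EIA against matrix-matched standards; percent inhibition relative to control mean, IC50 by linear regression.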

[4] = target: T4, recombinant human Cox-2 (r-hu Cox-2) (Homo sapiens, UniProt P35354); test: Recombinant human PGHS-2 enzyme assay (RHUCX2); assay type: biochemical; settings: for IC50: read-out: RHUCX2 IC50 (parenthetical value)
T4 construct: made in house; host or cells: baculovirus/Sf9 insect cells (microsomes)
T4 sequence (P35354 18-604): T1 sequence (P35354 18-604)
How it was run: as §1

T2 sequence (P23219 24-599): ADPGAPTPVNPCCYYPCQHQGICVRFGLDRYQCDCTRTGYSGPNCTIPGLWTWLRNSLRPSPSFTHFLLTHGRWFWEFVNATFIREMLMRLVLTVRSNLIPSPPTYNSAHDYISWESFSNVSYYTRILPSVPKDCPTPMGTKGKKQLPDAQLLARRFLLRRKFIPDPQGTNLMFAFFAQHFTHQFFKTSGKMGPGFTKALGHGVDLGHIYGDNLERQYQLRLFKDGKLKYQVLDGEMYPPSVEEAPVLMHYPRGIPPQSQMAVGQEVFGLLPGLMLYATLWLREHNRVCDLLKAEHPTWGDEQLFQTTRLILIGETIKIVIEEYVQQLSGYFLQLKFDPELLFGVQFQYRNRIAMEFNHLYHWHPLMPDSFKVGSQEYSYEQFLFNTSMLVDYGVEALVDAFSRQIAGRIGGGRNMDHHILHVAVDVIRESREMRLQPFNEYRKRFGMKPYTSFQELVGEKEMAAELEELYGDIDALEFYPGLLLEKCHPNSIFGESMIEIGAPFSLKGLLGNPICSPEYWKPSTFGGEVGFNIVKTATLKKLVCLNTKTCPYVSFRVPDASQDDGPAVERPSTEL
T3 sequence (P23219 24-599): as above

| Compound | IC50 [3] | IC50 [4] | IC50 [1] | IC50 [2] | HWPX % Inhib. at Dose (μM) ([2]; 1 μM) | RHUCX2 % Inh. at Dose (μM) ([4]; 0.1 μM) | RHUCX2 % Inh. at Dose (μM) ([4]; 1 μM) | further results |
| --- | --- | --- | --- | --- | --- | --- | --- | --- |
| C/C(=C\Cn1ncc(-c2ccc(S(N)(=O)=O)cc2)c(-c2ccc(F)cc2)c1=O)C(F)(F)F [Example 154] | 0.126 µM | 0.018 µM |  |  |  |  |  | melting point: 155 to 157 °C; inhibition at 0.01 µM ([1]; 0.01 μM, read-out: Wish % Inhib. at Dose): 69%; inhibition at 0.1 µM ([1]; 0.1 μM, read-out: Wish % Inhib. at Dose): 100%; inhibition at 0.1 µM ([2]; 0.1 μM, read-out: HWPX % Inhib. at Dose): 48%; inhibition at 0.3 µM ([2]; 0.3 μM, read-out: HWPX % Inhib. at Dose): 81% |
| Cc1cc(-c2c(-c3ccc(S(C)(=O)=O)cc3)cnn(-c3ccc(F)c(Cl)c3)c2=O)ccc1F [Example 247, 2-(3-Chloro-4-fluorophenyl)-4-(4-fluoro-3-mehylphenyl)-5-[4-(methylsulfonyl)phenyl]-3(2H)-pyridazinone] |  |  | 0.02 µM | 7.76 µM |  |  |  | melting point: 207 to 208 °C; inhibition at 1 µM ([3]; 1 μM, read-out: RHUCX1 % Inh. at Dose): 55%; inhibition at 10 µM ([3]; 10 μM, read-out: RHUCX1 % Inh. at Dose): 72%; inhibition at 0.1 µM ([4]; 0.1 μM, read-out: RHUCX2 % Inh. at Dose): 51%; inhibition at 1 µM ([4]; 1 μM, read-out: RHUCX2 % Inh. at Dose): 71%; inhibition at 10 µM ([4]; 10 μM, read-out: RHUCX2 % Inh. at Dose): 99% |
| NS(=O)(=O)c1ccc(-c2cnn(CC3=CCCCC3)c(=O)c2-c2ccc(F)cc2)cc1 [Example 145, 2-(1-Cyclohexenylmethyl)-4-(4-fluorphenyl)-5-[4-(aminosulfonyl)phenyl]-3(2H)-pyridazinone] | 0.238 µM |  | 0.009 µM |  | 72 @ 1% | 86 @ 0.1% |  | HWPX % Inhib. at Dose (μM) ([2]; 0.3 μM): 30 @ .3%; RHUCX2 % Inh. at Dose (μM) ([4]; 0.01 μM): 56 @ 0.01% |
| 2-(5-Methylthien-2-ylmethyl)-4-(4-fluorophenyl)-5-[4-(methylsulfonyl)phenyl]-3(2H)-pyridazinone [Example 43] |  |  | 0.008 µM |  | 9 @ 1% | 96 @ 0.1% | 100 @ 1% | HWPX % Inhib. at Dose (μM) ([2]; 10 μM): 86 @ 10%; RHUCX1 % Inh. at Dose (μM) ([3]; 100 μM): 8 @ 100% |
| CS(=O)(=O)c1ccc(-c2cnn(-c3ccc(F)cc3)c(=O)c2COc2ccc(F)cc2)cc1 [Example 194, 2-(4-Fluorophenyl)-4-(4-fluolophenoxymethyl)-5-[4-(methylsulfonyl)phenyl]-3(2H)-pyridazinone] |  |  | 0.069 µM | 28.1 µM |  | 72 @ 0.1% | 73 @ 1% | RHUCX1 % Inh. at Dose (μM) ([3]; 100 μM): 35 @ 100%; RHUCX2 % Inh. at Dose (μM) ([4]; 10 μM): 90 @ 10% |
| NS(=O)(=O)c1ccc(-c2cnn(Cc3cccc(F)c3)c(=O)c2-c2ccc(F)cc2)cc1 [Example 149, 2-(3-Fluorobenzyl)-4-(4-fluorophenyl)-5-[4-(aminosulfonyl)phenyl]-3(2H)-pyrdazinone] |  | 0.003 µM | 0.03 µM |  |  |  |  | HWPX % Inhib. at Dose (μM) ([2]; 3 μM): 34 @ 3%; HWPX % Inhib. at Dose (μM) ([2]; 10 μM): 89 @ 10%; RHUCX1 % Inh. at Dose (μM) ([3]; 1 μM): 40 @ 1%; RHUCX1 % Inh. at Dose (μM) ([3]; 10 μM): 45 @ 10% |
| CS(=O)(=O)c1ccc(-c2cnn(-c3ccc([N+](=O)[O-])s3)c(=O)c2-c2ccc(F)cc2)cc1 [Example 105, 2-(5-Nitro-2-thienyl)-4-(4-fluorophenyl)-5-[4-(methylsulfonl)phenyl]-3(2H)-pyridazinone] |  |  | 0.018 µM |  | 62 @ 1% | 52 @ 0.1% | 98 @ 1% | RHUCX1 % Inh. at Dose (μM) ([3]; 1 μM): 85 @ 1% |
| CC(/C=C/Cl)n1ncc(-c2ccc(S(N)(=O)=O)cc2)c(-c2ccc(F)cc2)c1=O (stereo not shown) [Example 140, 2-(3-Chloro-1-methyl-2E-propenyl)-4-(4-fluorophenyl)-5-[4-(aminosulfonyl)phenyl]-3(2H)-pyridazinone] | 3.06 µM | 0.022 µM | 0.01 µM | 0.773 µM |  |  |  |  |
| CS(=O)(=O)c1ccc(-c2cnn(-c3ccc(F)cc3)c(=O)c2Oc2ccc(F)cc2)cc1 [Example 108, 2-(4-Fluorophenyl)-4-(4-fluorophenoxy)-5-[4-(methylsulfonyl)phenyl]-3(2H)-pyridazinone] |  | 0.279 µM | 0.097 µM | 8 µM |  |  |  | inhibition at 100 µM ([3]; 100 μM, read-out: RHUCX1 % Inh. at Dose): 0% |
